Several values for one entry are separate records, joined by “and”; a condition that tells them apart may be missing. Identical values can stand only once. Like-named read-outs stand apart in the source and are kept apart here.
Assays:
[1] = molecular target: T1, Human Androgen Receptor (Homo sapiens, UniProt P10275); assay: Androgen receptor binding assay (hydroxylapatite, [3H]R1881, cytosol of transfected HEK-293 cells); conditions: % RBA=100×IC50 R1881/IC50 compound, transfected cells
T1 sequence (P10275 1-920): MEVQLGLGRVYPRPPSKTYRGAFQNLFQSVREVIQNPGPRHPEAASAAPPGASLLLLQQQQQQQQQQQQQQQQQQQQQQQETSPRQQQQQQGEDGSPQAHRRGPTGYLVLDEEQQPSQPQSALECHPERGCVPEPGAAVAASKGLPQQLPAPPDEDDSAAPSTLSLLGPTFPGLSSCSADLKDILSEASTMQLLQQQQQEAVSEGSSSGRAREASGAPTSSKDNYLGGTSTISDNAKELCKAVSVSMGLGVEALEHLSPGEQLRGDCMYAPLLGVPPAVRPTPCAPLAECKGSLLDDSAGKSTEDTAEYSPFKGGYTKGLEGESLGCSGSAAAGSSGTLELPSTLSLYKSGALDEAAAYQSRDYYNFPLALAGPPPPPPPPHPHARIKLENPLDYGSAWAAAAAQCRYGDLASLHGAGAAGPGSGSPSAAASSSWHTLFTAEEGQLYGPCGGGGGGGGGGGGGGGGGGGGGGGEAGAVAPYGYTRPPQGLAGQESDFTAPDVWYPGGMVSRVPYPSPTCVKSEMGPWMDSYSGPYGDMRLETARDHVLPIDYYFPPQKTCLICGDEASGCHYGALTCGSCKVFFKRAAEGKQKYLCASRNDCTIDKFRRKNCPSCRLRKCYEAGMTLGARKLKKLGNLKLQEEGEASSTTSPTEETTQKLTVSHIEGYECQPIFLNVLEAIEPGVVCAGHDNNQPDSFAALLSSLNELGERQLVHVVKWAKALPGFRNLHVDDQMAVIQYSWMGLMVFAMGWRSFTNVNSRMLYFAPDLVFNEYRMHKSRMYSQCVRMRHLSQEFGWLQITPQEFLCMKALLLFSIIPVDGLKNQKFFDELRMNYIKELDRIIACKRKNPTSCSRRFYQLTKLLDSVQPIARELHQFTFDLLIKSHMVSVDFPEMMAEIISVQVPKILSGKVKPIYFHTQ

[2] = tested on: Shionogi mouse mammary carcinoma cells; assay: Androgenic/antiandrogenic activity on DHT-stimulated Shionogi cell growth; format: cell-based
[3] = Mus musculus, read-out: Shionogi Antiandrogenic activity IC50 (nM), inhibition of DHT-stimulated Shionogi cell number
[4] = read-out: Shionogi Antiandrogenic activity IC50, inhibition of DHT-stimulated Shionogi cell number

Row | SMILES | Androgen Receptor Binding (%) Human RBA R1881 = 100 [1] | IC50 [2, 3] [nM] | IC50 ([2]; Mus musculus, inhibition of DHT-stimulated Shionogi cell number, read-out: Shionogi Antiandrogenic activity IC50) [nM] | IC50 ([2]; inhibition of DHT-stimulated Shionogi cell number, read-out: Shionogi Antiandrogenic activity IC50) [nM] | IC50 [2, 4]
1 | CCC(NC1CCOCC1)c1cccc(OCC[C@]23CCC4C(CCC5Cc6nocc6C[C@@]54C)C2CCC3O)c1 (stereo partly drawn) [EM-6908] | 13% | 7.4 |  |  | 
2 | CCC(CC)N[C@@H](CC)c1cccc(OCC[C@]23CCC4C(CCC5N(C)C(=O)CC[C@]45C)C2CC[C@@H]3O)c1 (stereo partly drawn) [EM-6549] | 5.8% |  | 3.5 | 6 | 
3 | CCCCC(NC(CC)CC)c1cccc(OCC[C@]23CCC4C(CCC5CC(=O)CC[C@@]54C)C2CCC3=O)c1 (stereo partly drawn) [EM-6896] | 314.6% | 3.2 |  |  | 
4 | O=C1C=C2CCC3C(CC[C@@]4(CCOc5cccc(CN6CCCCC6)c5)C3CC[C@@H]4O)C2CC1 (stereo partly drawn) [EM-6564] | 3.6% | 66 |  |  | 
5 | CC(C)CCN1CCCCC1c1cccc(OCC[C@]23CCC4C(CCC5CC(=O)CC[C@@]54C)C2CC[C@@H]3O)c1 (stereo partly drawn) [EM-6492] | 68% and 115% | 9.6 |  |  | 7.1 nM
6 | CCC(NCC1CCCO1)c1ccnc(OCC[C@]23CCC4C(CCC5CC(=O)CC[C@@]54C)C2CC[C@@H]3O)c1 (stereo partly drawn) [EM-7104] | 54.3% | 2.8 |  |  | 
7 | CCCCC(NC1CCCCC1)c1cccc(OCC[C@]23CCC4C(CCC5CC(=O)CC[C@@]54C)C2CCC3=O)c1 (stereo partly drawn) [EM-6894] | 129.7% | 4.1 |  |  | 
8 | CCC(NC1CCCC1)c1cc(OCC[C@]23CCC4C(CCC5=CC(=O)CC[C@@]54C)C2CCC3O)ccn1 (stereo partly drawn) [EM-7165] | 26.6% | 1.4 |  |  | 
9 | CC[C@@H](NC1CCCCC1)c1cccc(OCC[C@]23CCC4C(CCC5CC(=O)CC[C@@]54C)C2CCC3=O)c1 (stereo partly drawn) [EM-7063] | 115% | 0.51 |  |  | 
10 | CCCCS(=O)(=O)Cc1cccc(OCC[C@]23CCC4C5CCC(=O)C=C5CCC4C2CC[C@@H]3O)c1 (stereo partly drawn) [EM-6861] | 3.0% | 32 |  |  | 
11 | C[C@@H]1C(NCc2cccc(OCC[C@]34CCC5C(CCC6CC(=O)CC[C@@]65C)C3CC[C@@H]4O)c2)CCC[C@@H]1C (stereo partly drawn) [EM-6437] | 80% | 4 |  |  | 
12 | CCC(NC1CCOCC1)c1cccc(OCC[C@]23CCC4C(CCC5CC(=O)CC[C@@]54C)C2CC[C@@H]3O)c1 (stereo partly drawn) [EM-6666] | 211.3% | 0.16 |  |  | 
13 | CCC(CC)NCc1cc(C#N)cc(OCC[C@]23CCC4C(CCC5CC(=O)CC[C@@]54C)C2CC[C@@H]3O)c1 (stereo partly drawn) [EM-6509] | 119% | 1.9 |  |  | 
14 | C[C@]12CCC(=O)CC1CCC1C2CC[C@@]2(CCOc3cccc(CNC4CC5CCC4C5)c3)C1CC[C@@H]2O (stereo partly drawn) [EM-6471] | 13% |  |  |  | 6.4 nM and 9.6 nM
15 | CCC(Nc1ccncc1)c1cccc(OCC[C@]23CCC4C(CCC5CC(=O)CC[C@@]54C)C2CCC3O)c1 (stereo partly drawn) [EM-6857] | 5% | 63 |  |  | 
16 | CCC(NC1CCOCC1)c1cncc(OCC[C@]23CCC4C(CCC5CC(=O)CC[C@@]54C)C2CCC3O)c1 (stereo partly drawn) [EM-7107] | 66.2% | 1 |  |  | 
17 | CCCCN1CCCCC1c1ccc(C)c(OCC[C@]23CCC4C(CCC5CC(=O)CC[C@@]54C)C2CC[C@@H]3O)c1 (stereo partly drawn) [EM-6261] | 66% and 73% | 6.4 |  |  | 
18 | CCC(NC1CCOCC1)c1cncc(OCC[C@]23CCC4C(CCC5=CC(=O)CC[C@@]54C)C2CCC3O)c1 (stereo partly drawn) [EM-7176] | 16% | 7.2 |  |  | 
19 | CCCCC(NC1CCCCC1)c1cccc(OCC[C@]23CCC4C(CCC5CC(=O)CC[C@@]54C)C2CCC3O)c1 (stereo partly drawn) [EM-6895] | 115.5% | 4.2 |  |  | 

Row | SMILES | Androgen Receptor Binding (%) Human RBA R1881 = 100 [1] | IC50 [2, 3] [nM] | IC50 ([2]; Mus musculus, inhibition of DHT-stimulated Shionogi cell number, read-out: Shionogi Antiandrogenic activity IC50) [nM] | IC50 ([2]; inhibition of DHT-stimulated Shionogi cell number, read-out: Shionogi Antiandrogenic activity IC50) [nM] | IC50 [2, 4]
20 | CCN(C1CCCCC1)[C@H](C)c1cccc(OCC[C@]23CCC4C(CCC5C[C@@H](O)CC[C@@]54C)C2CC[C@@H]3O)c1 (stereo partly drawn) [EM-6556] | 6.9% | 1.7 |  |  | 
21 | CCCN(C1CC1)C(CC)c1cccc(OCC[C@]23CCC4C(CCC5CC(=O)CC[C@@]54C)C2CC[C@@H]3O)c1 (stereo partly drawn) [EM-6735] | 2385% | 3.2 |  |  | 
22 | C[C@]12CCC(=O)CC1CCC1C2CC[C@@]2(CCOc3cccc(CNC4CC5CCC4C5)c3)C1CC[C@@H]2O (stereo partly drawn) [EM-6470] | 34% and 62% |  |  |  | 3.5 nM and 2.4 nM
23 | CCCCC(NC(CC)CC)c1cccc(OCC[C@]23CCC4C(CCC5CC(=O)CC[C@@]54C)C2CCC3O)c1 (stereo partly drawn) [EM-6906] | 372% | 0.5 |  |  | 
24 | CCC(NC(C)CC(F)(F)F)c1cccc(OCC[C@]23CCC4C(CCC5CC(=O)CC[C@@]54C)C2CC[C@@H]3O)c1 (stereo partly drawn) [EM-6700] | 670% | 49.9 |  |  | 
25 | CCC(CC)CNC(CC)(CC)c1cccc(OCC[C@]23CCC4C(CCC5CC(=O)CC[C@@]54C)C2CCC3=O)c1 (stereo partly drawn) [EM-7002] | 2088% | 23 |  |  | 
26 | CCC(CC)NCc1ccc(C#N)c(OCC[C@]23CCC4C(CCC5CC(=O)CC[C@@]54C)C2CC[C@@H]3O)c1 (stereo partly drawn) [EM-6495] | 83% and 102% | 4.7 |  |  | 2.5 nM
27 | C[C@H]1CCCCC1NCc1cccc(OCC[C@]23CCC4C(CCC5CC(=O)CC[C@@]54C)C2CC[C@@H]3O)c1 (stereo partly drawn) [EM-6438] | 119% | 2.2 |  |  | 
28 | CCC(NC1CCCCC1)c1cncc(OCC[C@]23CCC4C(CCC5CC(=O)CC[C@@]54C)C2CCC3O)c1 (stereo partly drawn) [EM-7093] | 361.8% | 0.16 |  |  | 
29 | COCC(NC1CCCCC1)c1cncc(OCC[C@]23CCC4C(CCC5=CC(=O)CC[C@@]54C)C2CCC3O)c1 (stereo partly drawn) [EM-7184] | 57% | 7.4 |  |  | 
30 | CCC(NC1CCCC1)c1cccc(OCC[C@]23CCC4C(CCC5CC(=O)CC[C@@]54C)C2CC[C@@H]3O)c1 (stereo partly drawn) [EM-6537] | 88% | 0.4 |  |  | 0.3 nM
31 | CCC1COCC(c2cccc(OCC[C@]34CCC5C(CCC6CC(=O)CC[C@@]65C)C3CCC4O)c2)N1 (stereo partly drawn) [EM-7111] | 39% | 13 |  |  | 
32 | CN(Cc1cccc(OCC[C@]23CCC4C(CCC5CC(=O)CC[C@@]54C)C2CC[C@@H]3O)c1)C1CCCCCCC1 (stereo partly drawn) [EM-6424] | 136% | 2.9 |  |  | 
33 | CCC(NC1CCOCC1)c1cccc(OCC[C@]23CCC4C(CCC5Cc6n[nH]cc6C[C@@]54C)C2CCC3O)c1 (stereo partly drawn) [EM-6867] | 11.3% | 4.4 |  |  | 
34 | CCC(NC1CCS(=O)(=O)CC1)c1cccc(OCC[C@]23CCC4C(CCC5CC(=O)CC[C@@]54C)C2CCC3O)c1 (stereo partly drawn) [EM-6836] | 62% | 2.4 |  |  | 
35 | CCCC(NC1CCCC1)c1cccc(OCC[C@]23CCC4C(CCC5CC(=O)CC[C@@]54C)C2CCC3=O)c1 (stereo partly drawn) [EM-6739] | 132.5% | 2.4 |  |  | 
36 | CCC(CC)NCc1ccc(F)c(OCC[C@]23CCC4C(CCC5CC(=NO)CC[C@@]54C)C2CC[C@@H]3O)c1 (stereo partly drawn) [EM-6409] | 16% | 1 |  |  | 
37 | CCC(CC)CNC(CC)(CC)c1cccc(OCC[C@]23CCC4C(CCC5CC(=O)CC[C@@]54C)C2CCC3O)c1 (stereo partly drawn) [EM-7001] | 1981% | 17 |  |  | 
